Ends that are not written are not given here.
System: A/WSN/33 H1N1 virus
Type: cell-based, Influenza A virus

Sequence: RRKKWLVFFVIYFFR [FP4, RRKKWLVFFVIYFFR]
- knockdown: 100%

Reference: patent US20130205416A1 (priority 2010, published 2013)
